Measurements reported in US8354274B2, “Synthetic surfaces for culturing cells in chemically defined media” (Geron Corporation, priority 2008, dated 2013).
Bridges are numbered along the chain shown (N, C = ends). Where no end group is shown, it is not given here.

What was measured:
[1] = tested on: HT-1080 human fibrosarcoma cells; assay: HT-1080 cell adhesion assay (crystal violet, absorbance at 570 nm); assay type: cell-based; settings: for HT-1080 adhesion compared with linear BSP (SEQ ID NO:4)-conjugated (meth)acrylate: cyclic peptide conjugated to Formulation SA1, normalized to fibronectin (FN, 5 mg/mL)-coated surfaces
Description: To evaluate ability of a polypeptide conjugated to embodiments of swellable (meth)acrylate using these conjugation methods to enable cell adhesion and proliferation, peptides Ac-LysTyrGlyArgLysArgLeuGlnValGlnLeuS erIleArgThr-NH2 (SE Q ID NO:22) (AG-73, an adhesive peptide) and Ac-GlyArgGlyGluSerProIleTyrLys-NH2 (SEQ ID NO:30) (RGE, a negative control) were conjugated to swellable (meth)acrylate (as described above) and adhesion of HT-1080 human fibrosarcoma cells to the swellable (meth)acrylate was evaluated. Briefly, Laminin (5 μg/mL, Sigma-Aldrich) control wells were coated for 1 hour at room temperature. All wells were blocked with 1% bovine serum albumin (BSA) in phosphate buffered saline (PBS) for 1 hour at 37° C. Wells were washed briefly with PBS before incubation with 0.1% BSA in Iscove's Modified Dulbecco's Medium (IMDM) prior to cell seeding. HT-1080 human fibrosarcoma cells (ATCC number: CCL-121) were grown in IMDM (Lonza) with 10% FBS (Lonza) to 90% confluency at standard cell culture conditions. Cells were trypsinized and allowed to recover in IMDM with 10% FBS for 30 minutes at 37° C., 5% CO2. After recovery, cells were washed and resuspended in 0.1% BSA in IMDM and seeded on peptide-conjugated plates at a density of 30,000 cells/well. Cell adhesion was allowed to take place for 1 hour at standard cell culture conditions. The media was aspirated from the wells and adherent cells were fixed and stained in 50 μL of 0.2% crystal violet in 20% methanol for 8 minutes at room temperature. Cellular absorption of crystal violet was quantified through addition of 1% SDS in H2O for 5 minutes prior to absorbance measurement at 570 nm. For this assay, after polypeptide conjugation the remaining NHS esters on the swellable (meth)acrylate were reacted with ethanolamine or aminopropyl morpholine to reduce uptake of crystal violet dye by the swellable (meth)acrylate.

H7 hES cells = assay: AttoPhos screening (alkaline phosphatase activity) of undifferentiated hES cells in chemically defined medium; assay type: cell-based, human; settings: for support of culture of undifferentiated stem cells (AttoPhos): peptides conjugated to Formulation SA1 at 10, 100 and 1000 μM input concentration
Experimental: All experimental plates were sterilized prior to the cell seeding by spraying with 70% ETOH, drying in a laminar hood, and washing five times with 200 μl Dulbecco's Phosphate Buffered Saline (DPBS). H7 hES cells were seeded on peptide conjugated swellable (meth)acrylate (SAP) surfaces at a density of 35,000 cells/well (96-well plate) in 100 μl of chemically defined medium Xvivo10 (Lonza, Cat #04-743Q) and supplemented with 80 ng/ml basic fibroblast growth factor (bFGF) (R&D systems, Cat #234-FSE/CF) and 0.5 ng/ml transforming growth factor-β1 (TGFβ1) (R&D systems, Cat. #240B). MATRIGEL™ (MG)-coated wells were used as positive control for adhesion of undifferentiated hES cells. Cells were cultured for 48 hrs under standard cell culture conditions (37° C. with 5% CO2) and then were fixed and processed for AttoPhos assay to measure alkaline phosphatase activity, which is a known marker for undifferentiated hES cells, and/or BCIP staining as described below.
AttoPhos screening was performed as follows. Briefly, at the end of incubation time, cells were rinsed with 150 μl of DPBS and fixed with 4% paraformaldehyde for 10 min at room temperature (70 μl/well of 96-well plate). The cells were washed once with 150 μl of DPBS, and treated for 10 min with 100 μl of AttoPhos fluorescent substrate for alkaline phosphatase (Promega) (diluted 1:3 in DPBS) protected from light. AttoPhos fluorescent intensity at 485/535 nm was obtained using Victor 3 microplate reader (Perklin Elmer). AttoPhos fluorescent intensity for experimental surfaces was expressed as % of MATRIGEL™ control.

HepG2/C3A cells = assay: Serum-free attachment of HepG2/C3A cells (LDH activity, absorbance at 490 nm); assay type: cell-based; settings: peptide conjugated to SA layer, 24 hours
Experimental: HepG2/C3A cells (ATCC # CRL-10741) were plated at 25,000 cells per well in 100 μl media in triplicate on SAP surfaces, BD BioCoat™ Collagen I and Corning CellBind® treated Topas™ in a 96 well format and cultured at in Eagle's Minimum Essential Medium (ATCC #30-2003) supplemented with 1% penicillin-streptomycin (Invitrogen #15140-155). The culture medium was not supplemented with fetal bovine serum (as recommended by the cell line supplier) nor was the SAP surface exposed to fetal bovine serum. The culture plates were incubated at 37° C., in 5% CO2 and 95% relative humidity for 24 hours. The cell culture plates having the SA surfaces were prepared as described in EXAMPLE 1. Peptides were conjugated according to EXAMPLE 2. […] The line in FIG. 24 indicates 75% performance of cells on Collagen 1.
The attachment of the HepG2/C3A cells was determined using a Cytotoxicity Assay (Promega CytoTox 96® Non-Radioactive Cytotoxicity Assay # G1780) which estimates the number of living cells attached to the culture surfaces. After 24 hours of in culture, the cells were vigorously washed with phosphate buffer, lysed via the introduction of the lysis buffer solution and incubation at 37 C for 1 hour to release lactate dehydrogenase (LDH) enzyme from the viable cells that remain attached to the culture surfaces. The biological activity of the released lactate dehydrogenase enzyme was measured via absorbance at 490 nm using a plate reader (Victor 3 from PerkinElmer).

[2] = peptide conjugated to swellable (meth)acrylate, 1 hour adhesion, OD570 nm normalized to Laminin

In the case of “Ac-LysGlyGlyLys^4GluProArgGlyAspThrTyrArgAsp^13-NH2 (Ac-KGGKEPRGDTYRD-NH2; lactam 4-13; SMILES CC(=O)N[C@@H](CCCCN)C(=O)NCC(=O)NCC(=O)N[C@H]1CCCCNC(=O)C[C@@H](C(N)=O)NC(=O)[C@H](CCCNC(=N)N)NC(=O)[C@H](Cc2ccc(O)cc2)NC(=O)[C@H]([C@@H](C)O)NC(=O)[C@H](CC(=O)O)NC(=O)CNC(=O)[C@H](CCCNC(=N)N)NC(=O)[C@@H]2CCCN2C(=O)[C@H](CCC(=O)O)NC1=O) [SEQ ID NO:7]”, the “HT-1080 adhesion compared with linear BSP (SEQ ID NO:4)-conjugated (meth)acrylate” value [1] is reported as “supported HT-1080 adhesion similarly to linear BSP-conjugated (meth)acrylates”.

“Ac-GlyArgGlyGluSerProIleTyrLys-NH2 (Ac-GRGESPIYK-NH2) [reference compound]” was tested, and the “adhesion of HT-1080 cells” value [1, 2] was “did not adhere”.

With “GlyArgGlyAspSerProLys (GRGDSPK; Synthetic polypeptide including sequence derived from human fibronectin) [s-FN]” the “support of culture of undifferentiated stem cells (AttoPhos)” value (H7 hES cells) was “comparable in performance to the long fibronectin sequence”.

With KGGTWYKIAFQRNRK [SEQ ID NO:16] the “attachment of HepG2/C3A cells compared to Collagen I” value (HepG2/C3A cells) was “*CLS 01020 (Polypeptides exhibiting results better than 75% attachment compared to Collagen I (see FIG. 24) are marked with an asterix in Table 6)” and the “serum-free attachment of HepG2/C3A cells compared with CellBind treated Topas” value (HepG2/C3A cells) was “greater than CellBind® treated Topas™”.

In the case of “Ac-LysGlyGlyLys^4AsnGlyGluProArgGlyAspThrTyrArgAlaTyrAsp^17-NH2 (Ac-KGGKNGEPRGDTYRAYD-NH2; lactam 4-17; SMILES CC(=O)N[C@@H](CCCCN)C(=O)NCC(=O)NCC(=O)N[C@H]1CCCCNC(=O)C[C@@H](C(N)=O)NC(=O)[C@H](Cc2ccc(O)cc2)NC(=O)[C@H](C)NC(=O)[C@H](CCCNC(=N)N)NC(=O)[C@H](Cc2ccc(O)cc2)NC(=O)[C@H]([C@@H](C)O)NC(=O)[C@H](CC(=O)O)NC(=O)CNC(=O)[C@H](CCCNC(=N)N)NC(=O)[C@@H]2CCCN2C(=O)[C@H](CCC(=O)O)NC(=O)CNC(=O)[C@H](CC(N)=O)NC1=O) [SEQ ID NO:6]”, the “HT-1080 adhesion compared with linear BSP (SEQ ID NO:4)-conjugated (meth)acrylate” value [1] is reported as “supported HT-1080 adhesion similarly to linear BSP-conjugated (meth)acrylates”.

For “Ac-LysTyrGlyArgLysArgLeuGlnValGlnLeuSerIleArgThr-NH2 (Ac-KYGRKRLQVQLSIRT-NH2) [AG-73]”, the “adhesion of HT-1080 cells” value ([1]; 1 μM peptide solution used for conjugation) was “did not result in cell adhesive surface”, the “adhesion of HT-1080 cells” value ([1]; 10 μM peptide solution used for conjugation) was “resulted in an adhesive surface” and the “adhesion of HT-1080 cells” value ([1]; 100 μM peptide solution used for conjugation) was “resulted in an adhesive surface”. The “adhesion of HT-1080 cells” value [1, 2] was “adhered specifically”.

KYGKAFDITYVRLKF [SEQ ID NO:21] was tested, and the “serum-free attachment of HepG2/C3A cells compared with CellBind treated Topas” value (HepG2/C3A cells) was “greater than CellBind® treated Topas™”.

For “Ac-LysGlyGlyCys^4GluProArgGlyAspThrTyrArgCys^17-NH2 (Ac-KGGCEPRGDTYRC-NH2; disulfide 4-13; SMILES CC(=O)N[C@@H](CCCCN)C(=O)NCC(=O)NCC(=O)N[C@H]1CSSC[C@@H](C(N)=O)NC(=O)[C@H](CCCNC(=N)N)NC(=O)[C@H](Cc2ccc(O)cc2)NC(=O)[C@H]([C@@H](C)O)NC(=O)[C@H](CC(=O)O)NC(=O)CNC(=O)[C@H](CCCNC(=N)N)NC(=O)[C@@H]2CCCN2C(=O)[C@H](CCC(=O)O)NC1=O) [SEQ ID NO:9]”, the “HT-1080 adhesion compared with linear BSP (SEQ ID NO:4)-conjugated (meth)acrylate” value [1] was “supported HT-1080 adhesion similar to”.

“Ac-LysGlyGlyAsnGlyGluProArgGlyAspThrTyrArgAlaTyr-NH2 (Ac-KGGNGEPRGDTYRAY-NH2) [SEQ ID NO:4]” was tested, and the “AttoPhos fluorescence intensity (FI) compared to MATRIGEL control” value (H7 hES cells; SEQ ID NO:4 conjugated to Formulation SA1A using 1000 μM solution, Xvivo10 + bFGF + TGFβ1, 48 hrs) was 56-60%, the “adhesion and growth of undifferentiated stem cells versus peptide concentration (AttoPhos)” value (H7 hES cells; peptide at 1, 10, 100 and 1000 μM, formulation SA1A surfaces) was “peptide concentration dependent” and the “support of culture of undifferentiated stem cells (AttoPhos)” value (H7 hES cells) was “appeared to better support the culture of undifferentiated stem cells”.

“Ac-LysGlyGlyCys^4AsnGlyGluProArgGlyAspThrTyrArgAlaTyrCys^17-NH2 (Ac-KGGCNGEPRGDTYRAYC-NH2; disulfide 4-17; SMILES CC(=O)N[C@@H](CCCCN)C(=O)NCC(=O)NCC(=O)N[C@H]1CSSC[C@@H](C(N)=O)NC(=O)[C@H](Cc2ccc(O)cc2)NC(=O)[C@H](C)NC(=O)[C@H](CCCNC(=N)N)NC(=O)[C@H](Cc2ccc(O)cc2)NC(=O)[C@H]([C@@H](C)O)NC(=O)[C@H](CC(=O)O)NC(=O)CNC(=O)[C@H](CCCNC(=N)N)NC(=O)[C@@H]2CCCN2C(=O)[C@H](CCC(=O)O)NC(=O)CNC(=O)[C@H](CC(N)=O)NC1=O) [SEQ ID NO:8]” was tested, and the “HT-1080 adhesion compared with linear BSP (SEQ ID NO:4)-conjugated (meth)acrylate” value [1] was “supported HT-1080 adhesion similar to”.

For KYGSETTVKYIFRLHE [SEQ ID NO:19], the “attachment of HepG2/C3A cells compared to Collagen I” value (HepG2/C3A cells) was “*CLS 01035 (Polypeptides exhibiting results better than 75% attachment compared to Collagen I (see FIG. 24) are marked with an asterix in Table 6)” and the “serum-free attachment of HepG2/C3A cells compared with CellBind treated Topas” value (HepG2/C3A cells) was “greater than CellBind® treated Topas™”.

With “KGGGQKCIVQTTSWSQCSKS (cysteine pairing not given here) [SEQ ID NO:13]” the “serum-free attachment of HepG2/C3A cells compared with CellBind treated Topas” value (HepG2/C3A cells) was “greater than CellBind® treated Topas™”.
